From patent US20100093871A1, “AGENT FOR PREVENTION OR TREATMENT OF IRON OVERLOAD DISORDERS” (MEIJI SEIKA KAISHA, LTD., priority 2007, published 2010)

System: serum ferritin
Assay: Serum ferritin in chronic hepatitis C patients after oral administration for 24 weeks
Format: in vivo, human (patients suffering from chronic hepatitis C)
Conditions: patients with chronic hepatitis C, 50 mg/day or 200 mg/day in two divided doses, CLIA, percentage change vs level before administration
Description: To patients suffering from chronic hepatitis C, 22β-methoxyolean-12-ene-3β,24(4β)-diol was orally administered for 24 weeks, at a daily dose of 50 mg/day or 200 mg/day. The administration of 22β-methoxyolean-12-ene-3β,24(4β)-diol in each administration group was carried out by orally administering half of each daily dose twice a day after eating breakfast and dinner. For example, in the 50 mg/day administration group, each day 25 mg of the drug was orally administered after breakfast and 25 mg of the drug was orally administered after dinner. Immediately after the beginning of the administration, and after 2, 4, 8, 12, 16, 20, and 24 weeks from the beginning of the administration, serum samples were collected to determine serum ferritin contained in the samples. […] Serum ferritin was determined by a chemiluminescence immunoassay (CLIA) with reference to a method described in a protocol attached to Chemilumi ACS-Ferritin II (Bayer Medical). Each serum ferritin level contained in each serum sample collected was indicated as percentage, with the serum ferritin level before the administration of 22β-methoxyolean-12-ene-3β,24(4β)-diol regarded as […], and an average and a median of all patients were calculated.

SMILES: CO[C@@H]1CC(C)(C)CC2C3=CCC4[C@@]5(C)CC[C@H](O)[C@](C)(CO)C5CC[C@@]4(C)[C@]3(C)CC[C@]21C (stereo partly drawn) [22β-methoxyolean-12-ene-3β,24(4β)-diol]
- serum ferritin level: serum ferritin was lowered
